{"source": "patent US11028084B2", "about": "“Selective inhibitors of gentotoxic steress-induced IKK/NF-κB pathways” (Max-Delbrück-Centrum für Molekulare Medizin in der …, priority 2016, dated 2021)", "format_in_all_cases": "cell-based, human", "key": {"[1]": {"tested_on": "genotoxic stress-induced NF-κB signaling", "experiment": "Etoposide-induced p65 nuclear translocation, immunofluorescence / high content screening in U2OS cells", "procedure": "FIG. 2: U2OS cells were pre-treated and incubated with DMSO or MW01. DNA damage was induced by administration of etoposide. After 2 h cells were fixed, nuclei were stained with DAPI. p65 and phospho-H2AX, which is indicative for DNA DSB, were stained by immunofluorescence. Images were taken at a confocal Zeiss 710 LSM with a 40× oil objective.\nFIG. 3: (A) U2OS cells were pre-treated with increasing concentrations of MW01 in duplicates in a 384 well plate. Then, cells were treated with etoposide, fixed and subjected to IF of p65. Spatial measurement of p65 cytosolic and nuclear localisation was used for calculation of p65 translocation rates. (B) U2OS cells were pre-treated with DMSO, MW01 and irradiated with γ-IR. After 90 min cells were lysed and subjected to SDS-PAGE/WB and EMSA. (C) Cells were pre-treated with different concentrations of MW01 as indicated, treated with γ-IR (C) or etoposide (D) and subjected to WB or EMSA, respectively. LDH in (C) represents the loading control.\nGenotoxic stress was applied by ionizing irradiation of cells with a Cs137 source (0629 Irradiator, STS Braunschweig), or by inhibition of the topoisomerase II enzyme by administration of etoposide at concentrations between 20-50 μM for 2 h.\nFor immunofluorescence staining 0.95×10^5 cells were seeded in 6 well plates onto autoclaved cover slips. Cellular confluency dictated to beginning of the experiment (2-3 days from seeding). After conduction of experiments cells were washed with PBS and fixed with 4% PFA/double-distilled H2O (ddH2O) for 10 min at RT. Following two additional washing steps cells were incubated with a solution containing 0.12% glycine/0.2% saponin in PBS for 10 min and then blocked with a solution containing 10% FCS/0.2% saponin in PBS for 1 h. Primary antibody incubation was performed overnight at 4° C. (1:500 diluted in 0.2% saponin in PBS). The next day, cover slips were washed five times with a solution containing 0.2% saponin in PBS. Fluorophor-coupled secondary antibodies (1:1000 diluted in 0.2% saponin in PBS) were incubated for 1 h (hour) at RT. Nuclei were stained using 0.2 mg/ml DAPI in PBS for […] or by directly mounting with DAPI/Mowiol. Finally, the cover slips were washed five times with 0.2% saponin in PBS and two times with ddH2O. Confocal microscopy was performed using a Zeiss 710 LSM with a 40× or a 63× oil objective.\nIn order to identify specific inhibitors of the DNA damage-induced NF-κB pathway, a differential screening assay was designed. The primary screening for inhibitors of genotoxic stress-induced NF-κB signaling utilised a library of compounds from ChemBioNet and donated compounds of academic chemists. DNA damage was applied by application of etoposide. All compounds which inhibited p65 nuclear translocation were taken for subsequent counter screening. For the counter screening administration of TNFα was used to induce canonical NF-κB signaling. All substances inhibiting TNFα-induced canonical NF-κB activation were discarded from the list of potential DNA damage-pathway specific substances."}, "[2]": {"tested_on": "TNFα-induced canonical NF-κB activation", "experiment": "TNFα-induced p65 nuclear translocation (counter screening), U2OS cells", "details": "different concentrations", "procedure": "FIG. 4: (A) U2OS cells were pre-treated with increasing concentrations of MW01 in triplicates in a 384 well plate. Then, cells were treated with TNFα, fixed and subjected to IF staining of p65. Spatial measurement of p65 cytosolic and nuclear signals was used for the calculation of p65 translocation rates. (B) U2OS cells were pre-treated with MW01 at concentrations of 10 or 20 μM and stimulated with TNFα. Cell lysates were subjected to SDS-PAGE/WB. (C) HEK293 cells were pre-treated with DMSO or MW01 followed by administration of etoposide or TNFα. Cell lysates were used for EMSA.\nFor the activation of the canonical NF-κB pathway cells were treated with recombinant human TNFα (10 ng/ml) or IL-1β (10 ng/ml) for 20-30 min at 37° C.\nFor immunofluorescence staining 0.95×10^5 cells were seeded in 6 well plates onto autoclaved cover slips. Cellular confluency dictated to beginning of the experiment (2-3 days from seeding). After conduction of experiments cells were washed with PBS and fixed with 4% PFA/double-distilled H2O (ddH2O) for 10 min at RT. Following two additional washing steps cells were incubated with a solution containing 0.12% glycine/0.2% saponin in PBS for 10 min and then blocked with a solution containing 10% FCS/0.2% saponin in PBS for 1 h. Primary antibody incubation was performed overnight at 4° C. (1:500 diluted in 0.2% saponin in PBS). […]"}, "IKKγ mono-ubiquitination": {"tested_on": "IKKγ mono-ubiquitination", "experiment": "IKKγ mono-ubiquitination after irradiation, IKKγ immunoprecipitation, HEK293 cells", "procedure": "FIG. 11: (A) HEK293 cells were pre-incubated with DMSO, MW01 or ATM inhibitor KU55933 and irradiated. Lysates were subjected to SDS-PAGE/WB. The specific IKKγ S85 band (lower band) was identified by induction following irradiation and by sensitivity to ATMi and λ-phosphatase (λ-PP) treatment. The asterisk indicates a non-specific band that was neither inducible nor ATMi sensitive. (B) Experiment was done as shown in (A) using MEF cells. (C) HEK293 cells were pre-treated with DMSO or MW01, irradiated and lysed. Lysates were used to immunoprecipitate IKKγ using an IKKγ antibody.\nFollowing cell lysis the protein concentration of samples was determined. For input controls, 40 μg lysate were mixed with 6×SDS-buffer and denatured by heating to 95° C. for 4 min. Approximately 1500 μg protein lysate was used for pulldown and samples volumes were equalled with lysis buffer. Lysates were precleared with 30 μl sepharose A or sepharose G beads (depending on the antibody type used for pulldown) for 30 min, and centrifuged for 5 min at 1,500×g. The supernatant was transferred to a new reaction tube. Primary antibody (2-2.5 μg) was added to the cleared lysate for immunoprecipitation overnight while rotating at 4° C. The next day 30 μl sepharose beads per sample were used for immobilisation of antibodies. […]"}, "HEK293 cells": {"tested_on": "HEK293 cells", "experiment": "Crystal violet staining (cell number), HEK293 cells", "procedure": "FIG. 16: (A) U2OS cells were pre-treated with DMSO or MW01 and irradiated. Cells were lysed 8 h post γ-IR and were used for western blotting and immunochemical staining. (B) HEK293 cells were pre-treated with DMSO or MW01 and irradiated. After 48 h cells were fixed and stained with crystal violet. Dissolved crystal violet was used for absorbance measurement in a visible light spectrophotometer at a wavelength of 595 nm. (C) HEK293 cells were pre-treated with DMSO or MW01 and irradiated. The percentage of viable cells within the population was calculated by exclusion of annexin V and propidium-iodide positive cells measured by flow cytometry. (D) MEF cells were pre-treated with DMSO or MW01 and irradiated. Cells were used for annexin V staining 24 h and 48 after γ-IR. Percentage of annexin V positive cell population was analysed using a flow cytometer. (E) Experiment done as shown in (D) but with HT1080 cells processed 8 h after irradiation. Statistical significance was calculated using students t-test.\nFor crystal violet staining, cells were washed with ice-cold PBS and fixed with 4% PFA in PBS for 15 min under a fume hood. After washing with PBS, cells were stained with 0.1% crystal violet for 20 min at RT. […] Then, 0.25 ml of stain was diluted 1:4 in ddH2O and absorbance was measured at 595 nm using a spectrophotometer against 10% acetic acid as blank."}}, "note": "“Also recorded” adds a separate entry of the source."}
{"smiles": "COc1ccc2c(c1OC)c(=O)n1c3ccc(O)cc3c3ccnc2c31", "note": "[MW01, 12-hydroxy-6,7-dimethoxy-8H-benzo[c]indolo[3,2,1-ij][1,5]naphthyridin-8-one]", "values": [{"measurement": "IC50", "setting": "[1]; Homo sapiens, U2OS, etoposide-induced p65 nuclear translocation, high content screening", "result": 460, "unit": "nM"}, {"measurement": "calculated Hill coefficient", "setting": "[1]; IC50 determination assay", "result": "−0.9"}, {"measurement": "percentage in activity change (as recorded in IC50 determination assay)", "setting": "[1]; etoposide", "result": 120, "unit": "%"}, {"measurement": "concentration sufficient for maximal inhibition of p65 nuclear translocation", "setting": "[1]; etoposide stimulation, U2OS", "result": 5, "unit": "µM"}, {"measurement": "inhibition of etoposide-induced p65 nuclear translocation / NF-κB activation", "setting": "[1]; etoposide, U2OS", "result": "inhibited NF-κB activation in response to etoposide stimulation; also recorded: inhibited the nuclear translocation of p65 upon etoposide stimulation in a concentration dependent manner"}, {"measurement": "effect on p65 nuclear translocation / NF-κB activation after TNFα stimulation", "setting": "[2]", "result": "did not interfere with p65 nuclear translocation rates"}, {"measurement": "IKKγ mono-ubiquitination", "setting": "IKKγ mono-ubiquitination", "result": "abolishment"}, {"measurement": "cell number compared to the DMSO/IR control", "setting": "HEK293 cells; HEK293, 48 h after irradiation", "result": "significant effect on further reduction in cell number"}, {"measurement": "cell number in comparison to DMSO treated samples", "setting": "HEK293 cells; HEK293, not irradiated", "result": "reduced the cell number"}]}
